In patent US12357711B2, “PSMA binding dual mode radiotracer and therapeutic” (Technische Universität München, priority 2019, dated 2025):

Tested on: SCID mice
Experiment: Preclinical dosimetry from biodistribution in mice, extrapolated to 70-kg Standard Adult (OLINDA/EXM 1.0)
Type: in vivo
Settings: […] bladder voiding interval
Protocol: 3-5 mice were injected per timepoint with a mean 25.6±3.6 MBq of 18F-rhPSMA-7 and 28.5±4.8 MBq of 18F-rhPSMA-7.3, respectively. Mice, severe combined immunodeficiency (SCID) were used for the experiments.
Mice were sacrificed at the following timepoints: • ^18F-rhPSMA-7: 10, 20, 40, 60, 120 and 180 minutes after administration. • ^18F-rhPSMA-7.3: 10, 60, 120, 180 and 300 minutes after administration.
Urine, blood, heart, lung, spleen, pancreas, liver, stomach (emptied), small intestine (emptied), large intestine (emptied), kidneys, bladder, testis, fat, muscle (partial, femoral), femur, tail and brain. Urine was collected with a pipette in the CO2 gas chamber. In case of missing urination in the chamber the bladder was aspirated with an insulin syringe. Blood was withdrawn instantly after sacrifice with an insulin syringe from the heart. All other tissues and organs were dissected and transferred directly in plastic containers.
The counting rates of measurement samples were automatically corrected for decay. The radioactivity distribution ratios (unit: percentage of the injected dose (% ID) in the measurement samples were determined using the equation below. The sum of the counting rates from all measurement samples obtained from one mouse was designated as the counting rate for administrated radioactivity.
The radioactivity distribution ratio per unit weight of the measurement sample (unit: % ID/g) excluding urine and feces samples was determined by using the equation below. The weight of the measurement sample was determined by subtraction of the empty measurement container from the container including the sample.
For consistency of statistical calculations for each radiotracer the same number of time-points for ^18F-rhPSMA-7 and ^18F-rhPSMA-7.3 was used. Therefore, for ^18F-rhPSMA-7 the 10 min and 20 min time points were combined creating a 15 min endpoint.
The time-integral of activity for the accumulation in the significant source organs (AUCs) were generated both with numerical integration and physical decay according to J Juan et al., Journal of Pharmaceutical Sciences, 1993, 82:762-763.
In brief, to calculate a human dosimetry from the biodistribution in the mice, an extrapolation was necessary to account for the differences between the animals and humans. Normal-organ radiation doses were estimated for the 70-kg Standard Adult anatomic model using time-depending organ activity concentrations (in percent of the injected dose per gram, % ID/g) and total-body activities measured in the biodistribution studies in mice.
Tissue activity concentrations in mice were converted to tissue fractional activities in the 70-kg Standard Adult using the relative fractional organ masses in the Standard Adult and the “standard” 25-gramm mouse. Time-dependent total-body activity was fit to an exponential function and the difference between the injected activity and the total-body activity was assumed to be excreted to the urine because activity concentrations in the liver and GI tracer were low at all time points studied.
Organ residence time was calculated by numerical integration using the trapezoidal rule and the rest-of-body ^18F residence times was calculated as the difference between the total-body residence time and the sum of the organ and urine residence times. The bladder contents residence time was estimated using the dynamic voiding model in the OLINDA/EXM 1.0 dosimetry software. Finally, the Standard Adult mean organ dose equivalents (in mSv/MBq) and effective dose (also in mSv/MBq) were then calculated using OLIN DA/EXM 1.0.
Final calculation of radiation absorbed dose and dosimetry from biodistribution in mice: The tissues or organs in which a significant accumulation of radioactivity occurs (i.e., source organ) were kidney, spleen, lung, liver and heart. With respect to activity accumulation and clearance, a rapid clearance from blood and clearance to urine but relatively slow build-up in kidney was found.

## [^19F][^natGa]D/L-Dap-R/S-DOTAGA-rhPSMA7 [rhPSMA7-rac]
  Pancreas dose Beta: 1.95E−03 mSv/MBq
  Pancreas dose Photon: 6.13E−03 mSv/MBq
  Pancreas dose Total: 8.08E−03 mSv/MBq
  Red Marrow ED Cont.: 8.16E−04 mSv/MBq
  Red Marrow EDE Cont.: 8.16E−04 mSv/MBq
  Red Marrow dose Alpha: 0.00E000 mSv/MBq
  Red Marrow dose Beta: 1.39E−03 mSv/MBq
  Red Marrow dose Photon: 5.41E−03 mSv/MBq
  Red Marrow dose Total: 6.80E−03 mSv/MBq
  Skin ED Cont.: 4.93E−05 mSv/MBq
  Skin EDE Cont.: 0.00E000 mSv/MBq
  Skin dose Alpha: 0.00E000 mSv/MBq
  Skin dose Beta: 1.95E−03 mSv/MBq
  Skin dose Photon: 2.98E−03 mSv/MBq
  Skin dose Total: 4.93E−03 mSv/MBq
  Small Intestine ED Cont.: 5.18E−05 mSv/MBq
  Small Intestine EDE Cont.: 0.00E000 mSv/MBq
  Small Intestine dose Alpha: 0.00E000 mSv/MBq
  Small Intestine dose Beta: 1.95E−03 mSv/MBq
  Small Intestine dose Photon: 8.40E−03 mSv/MBq
  Small Intestine dose Total: 1.04E−02 mSv/MBq
  Spleen ED Cont.: 1.30E−04 mSv/MBq
  Spleen EDE Cont.: 1.56E−03 mSv/MBq
  Spleen dose Alpha: 0.00E000 mSv/MBq
  Spleen dose Beta: 1.59E−02 mSv/MBq
  Spleen dose Photon: 1.01E−02 mSv/MBq
  Spleen dose Total: 2.61E−02 mSv/MBq
  Stomach Wall ED Cont.: 8.40E−04 mSv/MBq
  Stomach Wall EDE Cont.: 0.00E000 mSv/MBq
  Stomach Wall dose Alpha: 0.00E000 mSv/MBq
  Stomach Wall dose Beta: 1.95E−03 mSv/MBq
  Stomach Wall dose Photon: 5.05E−03 mSv/MBq
  Stomach Wall dose Total: 7.00E−03 mSv/MBq
  Testes ED Cont.: 0.00E000 mSv/MBq
  Testes EDE Cont.: 0.00E000 mSv/MBq
  Testes dose Alpha: 0.00E000 mSv/MBq
  Testes dose Beta: 1.95E−03 mSv/MBq
  Testes dose Photon: 9.69E−03 mSv/MBq
  Testes dose Total: 1.16E−02 mSv/MBq
  Thymus ED Cont.: 2.59E−05 mSv/MBq
  Thymus EDE Cont.: 0.00E000 mSv/MBq
  Thymus dose Alpha: 0.00E000 mSv/MBq
  Thymus dose Beta: 1.95E−03 mSv/MBq
  Thymus dose Photon: 3.24E−03 mSv/MBq
  Thymus dose Total: 5.18E−03 mSv/MBq
  Thyroid ED Cont.: 2.59E−04 mSv/MBq
  Thyroid EDE Cont.: 1.55E−04 mSv/MBq
  Thyroid dose Alpha: 0.00E000 mSv/MBq
  Thyroid dose Beta: 1.95E−03 mSv/MBq
  Thyroid dose Photon: 3.23E−03 mSv/MBq
  Thyroid dose Total: 5.18E−03 mSv/MBq
  Total Body ED Cont.: 0.00E000 mSv/MBq
  Total Body EDE Cont.: 0.00E000 mSv/MBq
  Total Body dose Alpha: 0.00E000 mSv/MBq
  Total Body dose Beta: 2.37E−03 mSv/MBq
  Total Body dose Photon: 5.39E−03 mSv/MBq
  Total Body dose Total: 7.77E−03 mSv/MBq
  ULI Wall ED Cont.: 4.63E−05 mSv/MBq
  ULI Wall EDE Cont.: 0.00E000 mSv/MBq
  ULI Wall dose Alpha: 0.00E000 mSv/MBq
  ULI Wall dose Beta: 1.95E−03 mSv/MBq
  ULI Wall dose Photon: 7.31E−03 mSv/MBq
  ULI Wall dose Total: 9.26E−03 mSv/MBq
  Urinary Bladder Wall ED Cont.: 1.77E−02 mSv/MBq
  Urinary Bladder Wall EDE Cont.: 2.12E−02 mSv/MBq
  Urinary Bladder Wall dose Alpha: 0.00E000 mSv/MBq
  Urinary Bladder Wall dose Beta: 2.45E−01 mSv/MBq
  Urinary Bladder Wall dose Photon: 1.08E−01 mSv/MBq
  Urinary Bladder Wall dose Total: 3.54E−01 mSv/MBq
  Uterus ED Cont.: 1.40E−04 mSv/MBq
  Uterus EDE Cont.: 1.68E−03 mSv/MBq
  Uterus dose Alpha: 0.00E000 mSv/MBq
  Uterus dose Beta: 1.95E−03 mSv/MBq
  Uterus dose Photon: 2.61E−02 mSv/MBq
  Uterus dose Total: 2.80E−02 mSv/MBq
